A short description of data set [1]: DPPH free radical scavenging. Conditions: mean ± SD (n = 3). The method, then:
The effect of target compounds and vitamin C to scavenge the DPPH free radical was evaluated with the method described by Villano et al.[43] with slight modifications.
Two millilitres of different concentrations of the sample solution was added to 2.0 ml of DPPH solution (0.04 mg/mL), shaken and allowed to react at room temperature for 30 min. The absorbance value was measured at 517 nm with an ultraviolet-visible spectrophotometer. The blank reference cuvette contained absolute ethanol. All measurements were performed in triplicate. IC50 values were calculated. The percentage of DPPH radical scavenging rate of the target compound is calculated as follows: DPPH free radical scavenging effect (%)=[A0−(A1−A2)]/A0×100% where A0 is the absorbance of 2.0 ml DPPH solution +2.0 ml absolute ethanol; A1 is the absorbance of 2.0 ml DPPH solution +2.0 ml 3-arylcoumarins solution or standard; A2 is the absorbance of 2.0 ml 3-arylcoumarins solution or standard +2.0 ml absolute ethanol.

The subject of data set [2] is STZ-diabetic mice. The data set can be described thus: Acute hypoglycemic assay in STZ-diabetic mice. Type of data set: in vivo. The note with it: STZ-diabetics mice. The method, then:
Type II diabetes mellitus was induced in mice by a single intraperitoneal injection of freshly prepared STZ (Sigma Aldrich) dissolved in 0.1M citrate buffer, pH 4.5, in a volume of 110 mg/kg of bw. After 7 days of STZ administration, blood glucose levels of each mouse were determined. Mice with blood glucose levels higher than 11 mM were considered diabetic and were included in the study.
STZ-induced diabetic mice and normal mice were placed in single cages with wire-net floors and deprived of food for 12 h before experimentation but allowed free access to tap water throughout. The compounds (at the doses of 10, 30, and 100 mg/kg of bw) were suspended in 0.05% Tween-80 in saline solution. Glibenclamide (10 mg/kg of bw) was suspended in the same vehicle. The target compounds were freshly prepared immediately before experimentation and administered by the intragastrical route at the doses of 10 ml/kg of bw. Control mice received only the vehicle (0.05% Tween-80 in saline solution) by the same route. Blood glucose levels were measured at 0, 1.5, 3, 5, 7, and 9 h after drugs administration.

Data set [3] can be described thus: hydroxyl radical scavenging. Conditions: mean ± SD (n = 3), read-out: OH IC50 Value. The method, then: The ability of the target compounds and vitamin C to scavenge the hydroxyl radical was evaluated with method described by Ismaili et al.[29] with slight modifications. In test tube, 1.0 ml H2O2 solution (0.03%), 1.0 ml FeSO4 solution (2 mmol.L^−1), 1.0 ml salicylic acid solution (10 mmol.L^−1) and 1.0 ml of 3-arylcoumarins and standard water solution with different concentration (0.4–2.0 mg/mL) were mixed. Finally, 1.0 ml H2O2 solution (0.03%) was added to this mixture to start the reaction. Solutions were kept at 37 °C. After 30 min, the absorbance was measured at 510 nm against the reagent blank, where the distilled water was substituted for the H2O2 solution. The percentage of OH scavenging by target compounds and vitamin C was calculated the following equation: OH scavenging effect (%)=[A0−(A1−A2)]/A0×100% where A0 is the absorbance of 1.0 ml distilled water +1.0 ml H2O2 + 1.0 ml FeSO4 + 1.0 ml salicylic acid +1.0 ml H2O2; A1 is the absorbance of 1.0 ml 3-arylcoumarins or standard +1.0 ml H2O2 + 1.0 ml FeSO4 + 1.0 ml salicylic acid +1.0 ml H2O2; A2 is the absorbance of 1.0 ml 3-arylcoumarins or standard +1.0 ml H2O2 + 1.0 ml FeSO4 + 1.0 ml absolute absolute ethanol +1.0 ml H2O2.

A short description of data set [4]: Oral toxicity to mice (Lorke's method). The note with it: both sexes, mouse, in vivo, Kunming mice, observed 14 days. The method, then:
With reference to Lorke’s method, kunming mice were used as targets to estimate the oral toxicity of each compound to mice. We select compounds 11, 17, 25, 28, and 35 at concentrations of 10, 100, and 1000 mg/kg to test their oral toxicity in the first phase, and 1600, 2900, and 5000 mg/kg at the second phase.
Experiments were performed on Kunming mice (male and female half, bw range, 25–30 g). Mice were housed in a climate and light controlled room with a 12 h light/dark cycle. Twelve hours before experiments, food was withheld, but animals had free access to drinking water. The compounds were suspended in vehicle (Tween-80, 0.2% in saline). The concentrations were adjusted to orally administrate 0.2 ml/10 g of bw. Mice were treated in two phases. In the first, intragastric doses of 10, 100 and 1000 mg/kg of bw of compounds were administered. On the second, the doses were adjusted to 1600, 2900, and 5000 mg/kg of bw of compounds. In both phases, mice were observed daily in a period of 14 days for mortality, toxic effects and/or changes in behavioural pattern. At the end of the experiments, the mice were sacrificed in a CO2 chamber.

Data set [5] concerns the target T1, α-Glucosidase (Saccharomyces cerevisiae, UniProt P53341).
T1 construct: purchased Sigma Aldrich G0660-750UN
The data set can be described thus: biochemical. Type of data set: biochemical. On the procedure:
α-Glucosidase (G0660-750UN, Sigma Aldrich) and 4-Nitrophenyl α-D-glucopyranoside (PNPG, Macklin) were dissolved in phosphate buffer (pH 6.8, 100 mM), and the test compounds were dissolved in DMSO solution. The experiment was divided into blank group, control group, sample blank group, and sample group. The reagents were loaded in 96-well plates at the dose of the table (Table 8). The solution was bathed in 37 °C water for 10 min, and then enzyme solution was added. After reaction at 37 °C for 20 min, 70 μL Na2CO3 solution ([…]) was added to stop the reaction. All experiments were run in triplicate. […] Since PNPG can produce glucose and p-Nitrophenol (PNP) under the action of α-glucosidase, PNP has the greatest absorption at 405 nm. The absorbance was determined by the microplate reader, and the inhibition rate of α-glucosidase and the IC50 value of each sample were calculated according to the formula. Inhibition rate %={[(AC−AB)−(AS−ASB)]/(AC−AB)}×100% where AC is the absorbance of control group; AB is the absorbance of blank group; AS is the absorbance of sample group; ASB is the absorbance of sample blank group.

In data set [6] the test system is AGEs formation. As to the kind of experiment: In vitro inhibitory activity of AGEs formation (bovine serum albumin/glucose). Type of data set: biochemical. The note with it: mean ± SD (n = 3). The method, then:
To prepare the AGEs reaction solution, 10 mg/mL of bovine serum albumin in 50 mM PBS (pH 7.4) was added to 0.2 M glucose, and 0.02% sodium azide was added to prevent bacterial growth. The reaction mixture (3.0 ml) was then mixed with various concentrations (0.5–1000 μg/mL) of the target compounds (1.0 ml) dissolved in DMSO. After incubating at 37 °C for 14 d, the fluorescence intensity of AGE was determined by a fluorospectrophotometer (PE, USA) with excitation and emission wavelengths at 350 nm and 420 nm, respectively. All experiments were run in triplicate. Aminoguanidine hydrochloride was used as a reference compound. The inhibition rate of AGEs formation and the IC50 value of each sample were calculated according to the formula. Inhibition rate %={[(AC−AB)−(AS−ASB)]/(AC−AB)}×100% where AC is the absorbance of control group(1.0 ml glucose +1.0 ml bovine serum albumin +1.0 ml sodium azide +1.0 ml DMSO); AB is the absorbance of blank group(1.0 ml PBS +1.0 ml bovine serum albumin +1.0 ml sodium azide +1.0 ml DMSO); AS is the absorbance of sample group (1.0 ml glucose +1.0 ml bovine serum albumin +1.0 ml sodium azide +1.0 ml target compound solution or Aminoguanidine hydrochloride solution); ASB is the absorbance of sample blank group (1.0 ml PBS +1.0 ml bovine serum albumin +1.0 ml sodium azide +1.0 ml target compound solution or Aminoguanidine hydrochloride solution).

Data set [7] has as its system mice. More on the design: method as in PMID 17360155. The note with it: cited from earlier work.

Like-named read-outs stand apart in the source and are kept apart here. Some results are limits rather than exact numbers.

T1 sequence (P53341 whole entry): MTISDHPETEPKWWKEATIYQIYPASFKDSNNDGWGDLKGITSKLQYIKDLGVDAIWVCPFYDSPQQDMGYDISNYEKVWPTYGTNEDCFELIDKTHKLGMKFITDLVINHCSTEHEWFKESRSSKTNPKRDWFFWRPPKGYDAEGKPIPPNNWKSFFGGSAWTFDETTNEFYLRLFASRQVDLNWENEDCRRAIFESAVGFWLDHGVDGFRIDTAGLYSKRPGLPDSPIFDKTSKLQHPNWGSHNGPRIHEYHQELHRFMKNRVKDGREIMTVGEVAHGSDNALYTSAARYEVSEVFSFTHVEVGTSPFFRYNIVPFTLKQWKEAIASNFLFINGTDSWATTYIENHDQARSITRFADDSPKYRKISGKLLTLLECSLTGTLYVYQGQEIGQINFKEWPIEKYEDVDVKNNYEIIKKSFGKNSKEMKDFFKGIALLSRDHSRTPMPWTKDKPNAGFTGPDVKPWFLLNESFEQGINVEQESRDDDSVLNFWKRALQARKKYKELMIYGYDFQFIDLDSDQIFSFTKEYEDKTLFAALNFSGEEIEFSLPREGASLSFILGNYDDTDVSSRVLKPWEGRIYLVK

The IC50 is the midpoint of a concentration-inhibition curve. In general, LD50 refers to the dose at which mortality reaches 50%. A lower LD50 goes with greater toxicity. Take `O=c1oc2cc(O)cc(O)c2cc1-c1ccc(O)cc1` [Compound 28, 5,7-Dihydroxy-3-(4-hydroxyphenyl)-coumarin]: the IC50 in data set [1] was 41.51 ± 0.18 µM; in data set [3] it was more than 1000 µM; in data set [5] (mean ± SD (n = 3), read-out: α-Glucosidase inhibitory activity IC50 Value), 1.37 ± 0.15 µM. The Blood glucose concentration was found to be 15.3 ± 3.8 mM in data set [2] (10 mg/kg of bw per os, 0h); 14.8 ± 5.8 mM in data set [2] (10 mg/kg of bw per os, 1.5h); 11.4 ± 4.2 mM in data set [2] (10 mg/kg of bw per os, 3h); 8.9 ± 2.6 mM in data set [2] (10 mg/kg of bw per os, 5h); 6.4 ± 1.6 mM in data set [2] (10 mg/kg of bw per os, 7h); 7.0 ± 2.4 mM in data set [2] (10 mg/kg of bw per os, 9h). Also, the Blood glucose concentration in data set [2] (30 mg/kg of bw per os, 0h) worked out at 18.2 ± 6.7 mM; in data set [2] (30 mg/kg of bw per os, 1.5h), 14.9 ± 6.6 mM; in data set [2] (30 mg/kg of bw per os, 3h), 13.5 ± 6.1 mM; in data set [2] (30 mg/kg of bw per os, 5h) it was 12.7 ± 6.7 mM; in data set [2] (30 mg/kg of bw per os, 7h) it was 10.3 ± 5.6 mM; in data set [2] (30 mg/kg of bw per os, 9h) it was 7.3 ± 4.5 mM. Further, the Blood glucose concentration in data set [2] (100 mg/kg of bw per os, 0h) stood at 18.2 ± 4.1 mM; in data set [2] (100 mg/kg of bw per os, 1.5h), 17.3 ± 6.7 mM; in data set [2] (100 mg/kg of bw per os, 3h), 13.0 ± 6.6 mM; in data set [2] (100 mg/kg of bw per os, 5h), 11.0 ± 6.4 mM; in data set [2] (100 mg/kg of bw per os, 7h), 11.8 ± 6.0 mM; in data set [2] (100 mg/kg of bw per os, 9h) it was 10.2 ± 4.6 mM. Further, the “% Variation of glycemia” value in data set [2] (10 mg/kg of bw per os, 1.5h) is on record as “(−3.27) %”; in data set [2] (10 mg/kg of bw per os, 3h), “(−25.49) %”; in data set [2] (10 mg/kg of bw per os, 5h), “(−41.83) %”; in data set [2] (10 mg/kg of bw per os, 7h), “(−58.17) %”; in data set [2] (10 mg/kg of bw per os, 9h), “(−54.25) %”; in data set [2] (30 mg/kg of bw per os, 1.5h) it was “(−18.13) %”. The “% Variation of glycemia” value in data set [2] (30 mg/kg of bw per os, 3h) was “(−25.82) %”; in data set [2] (30 mg/kg of bw per os, 5h), “(−30.22) %”; in data set [2] (30 mg/kg of bw per os, 7h), “(−43.41) %”; in data set [2] (30 mg/kg of bw per os, 9h), “(−59.89) %”; in data set [2] (100 mg/kg of bw per os, 1.5h) it was “(−4.95) %”; in data set [2] (100 mg/kg of bw per os, 3h), “(−28.57) %”. Further, the “% Variation of glycemia” value in data set [2] (100 mg/kg of bw per os, 5h) was “(−39.56) %”; in data set [2] (100 mg/kg of bw per os, 7h) it was “(−35.17) %”; in data set [2] (100 mg/kg of bw per os, 9h), “(−43.96) %”. Further, the LD50 at 14 days in data set [4] is more than 5000 mg/kg. In data set [5] (in vitro), the “α-glucosidase inhibitory activity (in words)” value was “moderate to excellent inhibitory activity”.
One may read the melting point as the temperature, or range, at which the solid turns liquid. As to `CCN(CC)c1ccc2cc(-c3ccc(O)cc3)c(=O)oc2c1` [Compound 41, 7-Diethylamino-3-(4-hydroxyphenyl)-coumarin], the melting point fell in the range of 190.2 to 191.8 °C. In data set [1], the IC50 is more than 1000 µM. In addition, in data set [3], the IC50 is more than 1000 µM. Moreover, the half-inhibitory concentration (IC50) in data set [6] is more than 1000 µM. For the same compound, the IC50 in data set [5] came out at 13.4 ± 0.65 µM.
Compound `COc1ccc(-c2cc3c(O)cc(O)cc3oc2=O)cc1OC` [Compound 42, 5,7-Dihydroxy-3-(3,4-dimethoxyphenyl)-coumarin] gave a melting point of 322 to 324.1 °C. Further, in data set [1], the IC50 came out at 5.89 ± 0.06 µM. In addition, the IC50 in data set [3] is more than 1000 µM. For the same compound, it took 18.3 ± 0.38 µM to reach half-maximal inhibition in data set [6] (IC50). The compound further showed an IC50 in data set [5] of 39.1 ± 0.76 µM.
The matching figures for `COc1ccc(-c2cc3ccc(O)c(O)c3oc2=O)cc1OC` [Compound 43, 7,8-Dihydroxy-3-(3,4-dimethoxyphenyl)-coumarin]: 290.5 to 291.9 °C, 4.24 ± 0.06 µM, 887 ± 15.8 µM, 25.2 ± 1.72 µM and more than 1000 µM.
Regarding `O=C1O[C@H]([C@@H](O)CO)C(O)=C1O` [Vitaminc, Vitamin C, reference compound], the IC50 in data set [1] came out at 19.6 ± 1.88 µM; in data set [1] (listed as Vitamin C) it was 34.9 ± 0.85 µM; in data set [3] it was 788 ± 15.7 µM. For the same compound, the “protection against STZ-induced elevation in the plasma glucose levels” value in data set [7] is “only a marginal to moderate protection”.
Take `NCCS(=O)(=O)O` [taurine]: the “protection against STZ-induced elevation in the plasma glucose levels” value in data set [7] is reported as “only a marginal to moderate protection”.

The values above are taken from publication PMC6211316, “Synthesis and biological evaluation of 3-arylcoumarin derivatives as potential anti-diabetic agents” (Journal of Enzyme Inhibition and Medicinal Chemistry, 2018).
